Three molecules from patent US4251543A, “2-(p-Prenylphenyl)propionic acid” (priority 1978, dated 1981) can be followed below.

The nature of data set [1]: Changes of body weight, repeated oral administration. It counts as in vivo, rat (male Wister). The settings on record: for body weight before treatment: before treatment (baseline); for body weight before treatment / body weight after 5 days / body weight after 10 days: mean ± S.E.; for body weight after 5 days / body weight after 10 days: orally. How it is done: (§1) The test compound was suspended in 0.4% CMC solution in an appropriate concentration, and was administered orally once a day at the definite dose (50, 100 or 200 mg/Kg) in each 10 male Wister rats. Additional 10 control rats were received an equivalent volume of the vehicle. […] In those tables, the values of body weight, red blood cell and hemoglobin are mean ± S.E.

A further data set deals with rat paw edema. In words: Anti-inflammatory activity, rat paw edema (carrageenin). In kind it is in vivo, rat (male Wistar). The settings on record: p.o., three hours after injection of carrageenin. How it is done:
(§2) Anti-inflammatory activity was evaluated by the method of rat paw edema(Winter et al., J. Pharmacol. Exp. Ther., 141, 369(1963)). Six male Wistar strain rats were used in each group and a volume of the each paw was measured three hours after injection of carrageenin.

In the next data set the test system is gastric lesions. In words: Gastric lesions after oral administration. In kind it is in vivo, rat (male Wistar). The settings on record: 100 + 200 mg/Kg, p.o.; for lesion index (sum of areas damaged): mean ± S.E. As to the method:
Anti-inflammatory activity was evaluated by the method of rat paw edema(Winter et al., J. Pharmacol. Exp. Ther., 141, 369(1963)). Six male Wistar strain rats were used in each group and a volume of the each paw was measured three hours after injection of carrageenin. […] The gastric lesions induced were expressed as incidence(number of rats with gastric lesions/number of the rats) and lesion index(sum of areas damaged). The results are shown in Table 3, wherein the values of lesion index and liver weight are mean ± S.E.

In the next data set the test system is liver weight. Nature of the data set: Liver weight per 100 g of the test rat. It counts as in vivo, rat (male Wistar). The settings on record: 100 + 200 mg/Kg, p.o., mean ± S.E. As to the method: as §2
Immediately after the completion of the test described in Experiment 1, the test compound was orally administered to the test rats in a dose twice the dose administered in Experiment 1, and fasting was continued for 18 hours prior to autopsy and evaluation of gastric lesions and liver weight per 100 g of the test rat. The gastric lesions induced were expressed as incidence(number of rats with gastric lesions/number of the rats) and lesion index(sum of areas damaged). The results are shown in Table 3, wherein the values of lesion index and liver weight are mean ± S.E.

Another data set has as its system acetic acid writhing. Nature of the data set: Analgesic activity, acetic acid writhing test. The settings on record: p.o. It counts as in vivo, mouse (male ddY). The source says: Male ddY strain mice in groups of ten each were used for the evaluation of analgesic activity by acetic acid writhing test(Koster et al., Federation Proc., 18, 412(1959)).
Background: Writhing tests count abdominal constrictions after an irritant is injected.

Data set [2] concerns red blood cell and hemoglobin. Nature of the data set: Hematological findings after 10 days administration. It counts as in vivo, rat (male Wister). The settings on record: for hemoglobin / red blood cell: p.o., day one after 10 days administration, mean ± S.E.; for effect on hemoglobin count (in words) / effect on red blood cell count (in words): 50, 100 or 200 mg/Kg orally once a day, 10 days. How it is done: as §1

For `CC(C)=CCc1ccc(C(C)C(=O)O)cc1` (stereo not shown) [TA-060, 2-[p-(3-methyl-2-butenyl)phenyl]propionic acid], the figures for the “body weight before treatment” value in data set [1] (50 mg/Kg/day group), in data set [1] (100 mg/Kg/day group) and in data set [1] (200 mg/Kg/day group) were 211.5 ± 3.6 gram, 210.0 ± 2.5 gram and 211.7 ± 3.1 gram, respectively. The “body weight after 5 days” value worked out at 224.6 ± 3.6 gram in data set [1] (50 mg/Kg/day); 226.4 ± 2.8 gram in data set [1] (100 mg/Kg/day); 221.9 ± 4.6 gram in data set [1] (200 mg/Kg/day, *p <0.01). In addition, the “body weight after 10 days” value in data set [1] (50 mg/Kg/day) turned out to be 239.7 ± 3.2 gram; in data set [1] (100 mg/Kg/day) it was 238.5 ± 2.3 gram; in data set [1] (200 mg/Kg/day, **p <0.001), 238.3 ± 5.1 gram. The “effect on body weight gain (in words)” value in data set [1] (50, 100 or 200 mg/Kg orally once a day, 10 days) is recorded as “no effect”. The “inhibition (%)” value with rat paw edema (50 mg/Kg) was determined as 35.9%; in the data set with rat paw edema (100 mg/Kg), 46.5%; in the data set with rat paw edema (200 mg/Kg), 52.1%; with acetic acid writhing (50 mg/Kg), 37.3%; in the data set with acetic acid writhing (100 mg/Kg), 40.0%; in the data set with acetic acid writhing (200 mg/Kg) it was 62.7%. In addition, the “gastric lesion incidence (number of rats with gastric lesions/number of the rats)” value with gastric lesions (fasting 18 hours prior to autopsy) is recorded as 0/12. Moreover, the “lesion index (sum of areas damaged)” value with gastric lesions was 0 mm^2. Besides, the liver weight with liver weight came to 3.56 ± 0.04 g. Moreover, the hemoglobin in data set [2] (50 mg/Kg) worked out at 15.2 ± 0.1 g/dL; in data set [2] (100 mg/Kg, ***p <0.001), 15.1 ± 0.2 g/dL; in data set [2] (200 mg/Kg, ***p <0.001) it was 15.0 ± 0.2 g/dL. The red blood cell in data set [2] (50 mg/Kg, *p <0.05) is listed as 864.2 ± 20.2 × 10^4 /mm^3; in data set [2] (100 mg/Kg, **p <0.01), 860.8 ± 9.5 × 10^4 /mm^3; in data set [2] (200 mg/Kg, **p <0.01), 857.9 ± 15.2 × 10^4 /mm^3. Also, in data set [2], the “effect on hemoglobin count (in words)” value is reported as “no effect”. Moreover, the “effect on red blood cell count (in words)” value in data set [2] is listed as “no effect”.
For the molecule `CCCCC1C(=O)N(c2ccccc2)N(c2ccccc2)C1=O` [phenylbutazone, reference compound], the “lesion index (sum of areas damaged)” value in the data set on gastric lesions is recorded as 4.59 ± 1.35 mm^2. Besides, the liver weight in the data set with liver weight came out at 4.23 ± 0.09 g.
In the case of `CC(C)Cc1ccc(C(C)C(=O)O)cc1` (stereo not shown) [ibuprofen, reference compound], the “inhibition (%)” value in the data set with rat paw edema (50 mg/Kg) is 37.9%; in the data set with rat paw edema (100 mg/Kg) it was 49.5%; in the data set with rat paw edema (200 mg/Kg), 52.9%; in the data set on acetic acid writhing (50 mg/Kg) it was 18.6%; in the data set on acetic acid writhing (100 mg/Kg) it was 37.5%; with acetic acid writhing (200 mg/Kg) it was 53.8%. In addition, in data set [2], the “effect on hemoglobin count (in words)” value is given as “significant decrease”. Also, the “effect on red blood cell count (in words)” value in data set [2] is reported as “significant decrease”.
